Source: article doi:10.1101/2021.04.08.439011v1 (biorxiv, 2021)

What was measured:
[1] = biological target: ABL1(M351T) (Homo sapiens, UniProt P00519, M351T); conditions: phosphorylated; 0.1 µM; binder
[2] = biological target: BRAF(V600E) (Homo sapiens, UniProt P15056, V600E); conditions: 0.1 µM; binder
[3] = biological target: CIT (Homo sapiens, UniProt O14578); conditions: 0.1 µM; binder
[4] = biological target: CSNK1G2 (Homo sapiens, UniProt P78368); conditions: 0.1 µM; binder
[5] = biological target: DAPK1 (Homo sapiens, UniProt P53355); conditions: 0.1 µM; binder
Sequence of DAPK1 (P53355 whole entry): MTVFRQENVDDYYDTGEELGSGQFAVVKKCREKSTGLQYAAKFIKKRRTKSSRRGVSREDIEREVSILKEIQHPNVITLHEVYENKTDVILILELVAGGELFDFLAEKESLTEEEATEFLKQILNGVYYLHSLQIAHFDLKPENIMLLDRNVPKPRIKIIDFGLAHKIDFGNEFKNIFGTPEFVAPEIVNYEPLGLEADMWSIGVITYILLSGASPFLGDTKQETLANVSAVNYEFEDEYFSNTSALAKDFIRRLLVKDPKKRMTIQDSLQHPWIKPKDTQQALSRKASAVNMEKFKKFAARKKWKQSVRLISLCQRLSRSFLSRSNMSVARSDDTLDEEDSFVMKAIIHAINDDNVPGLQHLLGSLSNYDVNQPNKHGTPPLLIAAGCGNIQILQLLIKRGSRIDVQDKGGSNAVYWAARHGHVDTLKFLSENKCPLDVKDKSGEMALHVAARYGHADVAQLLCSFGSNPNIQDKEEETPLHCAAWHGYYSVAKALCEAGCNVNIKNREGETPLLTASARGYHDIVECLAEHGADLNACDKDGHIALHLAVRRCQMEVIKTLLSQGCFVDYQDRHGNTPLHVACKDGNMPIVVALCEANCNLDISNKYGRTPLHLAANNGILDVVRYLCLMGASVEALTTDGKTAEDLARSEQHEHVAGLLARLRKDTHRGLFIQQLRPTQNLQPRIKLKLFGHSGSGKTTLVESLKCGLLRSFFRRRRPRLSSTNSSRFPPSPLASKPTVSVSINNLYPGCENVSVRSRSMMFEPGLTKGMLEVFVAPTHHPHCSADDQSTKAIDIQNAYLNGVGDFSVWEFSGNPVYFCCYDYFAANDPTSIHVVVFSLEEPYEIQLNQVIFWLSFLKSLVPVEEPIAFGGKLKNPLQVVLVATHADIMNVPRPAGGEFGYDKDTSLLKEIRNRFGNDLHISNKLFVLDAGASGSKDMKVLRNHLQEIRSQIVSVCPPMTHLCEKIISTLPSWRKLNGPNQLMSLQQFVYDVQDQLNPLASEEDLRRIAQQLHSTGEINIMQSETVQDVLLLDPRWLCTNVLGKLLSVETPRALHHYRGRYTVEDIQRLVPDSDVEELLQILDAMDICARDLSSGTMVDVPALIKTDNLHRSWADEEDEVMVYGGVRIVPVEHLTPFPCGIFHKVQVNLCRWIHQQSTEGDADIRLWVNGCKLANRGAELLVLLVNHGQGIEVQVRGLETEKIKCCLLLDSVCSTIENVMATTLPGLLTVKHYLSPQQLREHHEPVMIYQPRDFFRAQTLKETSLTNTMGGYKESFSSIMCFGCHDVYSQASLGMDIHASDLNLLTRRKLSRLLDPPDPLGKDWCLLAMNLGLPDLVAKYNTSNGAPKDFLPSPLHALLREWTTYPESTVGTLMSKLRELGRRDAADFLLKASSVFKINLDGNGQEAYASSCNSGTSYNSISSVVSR

[6] = biological target: DAPK2 (Homo sapiens, UniProt Q9UIK4); conditions: 0.1 µM; binder
[7] = biological target: DCAMKL1 (Homo sapiens, UniProt O15075); conditions: 0.1 µM; binder
[8] = biological target: DYRK1A (Homo sapiens, UniProt Q13627); conditions: 0.1 µM; binder
[9] = biological target: ERK5 (Homo sapiens, UniProt Q13164); conditions: 0.1 µM; binder
[10] = biological target: FER (Homo sapiens, UniProt P16591); conditions: 0.1 µM; binder
[11] = biological target: FLT3(ITD) (Homo sapiens, UniProt P36888); conditions: 0.1 µM; binder
[12] = biological target: GRK1 (Homo sapiens, UniProt Q15835); conditions: 0.1 µM; binder
[13] = biological target: HIPK3 (Homo sapiens, UniProt Q9H422); conditions: 0.1 µM; binder
[14] = biological target: KIT(D816H) (Homo sapiens, UniProt P10721, D816H); conditions: 0.1 µM; binder
Sequence of KIT(D816H) (P10721 whole entry D816H): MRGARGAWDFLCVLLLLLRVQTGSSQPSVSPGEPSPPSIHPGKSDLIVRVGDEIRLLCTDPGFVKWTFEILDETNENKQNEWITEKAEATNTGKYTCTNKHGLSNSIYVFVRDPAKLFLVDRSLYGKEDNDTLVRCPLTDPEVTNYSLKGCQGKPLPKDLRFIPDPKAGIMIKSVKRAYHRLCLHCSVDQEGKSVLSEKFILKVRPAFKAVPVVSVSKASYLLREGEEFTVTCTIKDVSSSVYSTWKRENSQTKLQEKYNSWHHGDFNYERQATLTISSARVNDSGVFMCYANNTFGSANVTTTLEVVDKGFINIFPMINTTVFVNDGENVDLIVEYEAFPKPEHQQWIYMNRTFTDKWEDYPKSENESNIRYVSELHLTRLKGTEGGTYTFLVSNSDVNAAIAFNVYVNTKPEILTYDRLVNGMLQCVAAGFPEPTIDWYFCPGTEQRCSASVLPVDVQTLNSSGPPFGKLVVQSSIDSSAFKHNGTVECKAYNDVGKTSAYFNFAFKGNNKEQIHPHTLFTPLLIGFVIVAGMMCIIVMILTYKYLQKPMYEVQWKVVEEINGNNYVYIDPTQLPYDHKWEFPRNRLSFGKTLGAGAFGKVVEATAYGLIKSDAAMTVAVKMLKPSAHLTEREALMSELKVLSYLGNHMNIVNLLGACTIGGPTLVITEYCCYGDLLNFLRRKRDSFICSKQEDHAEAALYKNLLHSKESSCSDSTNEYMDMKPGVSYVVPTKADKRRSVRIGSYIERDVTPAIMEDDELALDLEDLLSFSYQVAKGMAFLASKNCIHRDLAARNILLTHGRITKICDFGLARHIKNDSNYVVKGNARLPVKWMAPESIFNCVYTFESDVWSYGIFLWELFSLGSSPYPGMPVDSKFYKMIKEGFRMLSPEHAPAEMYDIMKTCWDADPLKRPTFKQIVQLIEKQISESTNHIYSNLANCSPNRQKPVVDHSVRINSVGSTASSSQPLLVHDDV

[15] = biological target: MAK (Homo sapiens, UniProt P20794); conditions: 0.1 µM; binder
[16] = biological target: MAP3K12 (Homo sapiens, UniProt Q12852); conditions: 0.1 µM; binder
[17] = biological target: MEK2 (Homo sapiens, UniProt P36507); conditions: 0.1 µM; binder
[18] = biological target: MEK3 (Homo sapiens, UniProt P46734); conditions: 0.1 µM; binder
[19] = biological target: MINK (Homo sapiens, UniProt Q8N4C8); conditions: 0.1 µM; binder
[20] = biological target: MST3 (Homo sapiens, UniProt Q9Y6E0); conditions: 0.1 µM; binder
[21] = biological target: MYO3B (Homo sapiens, UniProt Q8WXR4); conditions: 0.1 µM; binder
[22] = biological target: PAK3 (Homo sapiens, UniProt O75914); conditions: 0.1 µM; binder
[23] = biological target: PIK3C2B (Homo sapiens, UniProt O00750); conditions: 0.1 µM; binder
[24] = biological target: PKAC-beta (Homo sapiens, UniProt P22694); conditions: 0.1 µM; binder
[25] = biological target: PLK2 (Homo sapiens, UniProt Q9NYY3); conditions: 0.1 µM; binder
[26] = biological target: RET(V804M) (Homo sapiens, UniProt P07949, V804M); conditions: 0.1 µM; binder
[27] = biological target: SBK1 (Homo sapiens, UniProt Q52WX2); conditions: 0.1 µM; binder
[28] = biological target: TAOK1 (Homo sapiens, UniProt Q7L7X3); conditions: 0.1 µM; binder
[29] = biological target: TIE1 (Homo sapiens, UniProt P35590); conditions: 0.1 µM; binder
Sequence of TIE1 (P35590 whole entry): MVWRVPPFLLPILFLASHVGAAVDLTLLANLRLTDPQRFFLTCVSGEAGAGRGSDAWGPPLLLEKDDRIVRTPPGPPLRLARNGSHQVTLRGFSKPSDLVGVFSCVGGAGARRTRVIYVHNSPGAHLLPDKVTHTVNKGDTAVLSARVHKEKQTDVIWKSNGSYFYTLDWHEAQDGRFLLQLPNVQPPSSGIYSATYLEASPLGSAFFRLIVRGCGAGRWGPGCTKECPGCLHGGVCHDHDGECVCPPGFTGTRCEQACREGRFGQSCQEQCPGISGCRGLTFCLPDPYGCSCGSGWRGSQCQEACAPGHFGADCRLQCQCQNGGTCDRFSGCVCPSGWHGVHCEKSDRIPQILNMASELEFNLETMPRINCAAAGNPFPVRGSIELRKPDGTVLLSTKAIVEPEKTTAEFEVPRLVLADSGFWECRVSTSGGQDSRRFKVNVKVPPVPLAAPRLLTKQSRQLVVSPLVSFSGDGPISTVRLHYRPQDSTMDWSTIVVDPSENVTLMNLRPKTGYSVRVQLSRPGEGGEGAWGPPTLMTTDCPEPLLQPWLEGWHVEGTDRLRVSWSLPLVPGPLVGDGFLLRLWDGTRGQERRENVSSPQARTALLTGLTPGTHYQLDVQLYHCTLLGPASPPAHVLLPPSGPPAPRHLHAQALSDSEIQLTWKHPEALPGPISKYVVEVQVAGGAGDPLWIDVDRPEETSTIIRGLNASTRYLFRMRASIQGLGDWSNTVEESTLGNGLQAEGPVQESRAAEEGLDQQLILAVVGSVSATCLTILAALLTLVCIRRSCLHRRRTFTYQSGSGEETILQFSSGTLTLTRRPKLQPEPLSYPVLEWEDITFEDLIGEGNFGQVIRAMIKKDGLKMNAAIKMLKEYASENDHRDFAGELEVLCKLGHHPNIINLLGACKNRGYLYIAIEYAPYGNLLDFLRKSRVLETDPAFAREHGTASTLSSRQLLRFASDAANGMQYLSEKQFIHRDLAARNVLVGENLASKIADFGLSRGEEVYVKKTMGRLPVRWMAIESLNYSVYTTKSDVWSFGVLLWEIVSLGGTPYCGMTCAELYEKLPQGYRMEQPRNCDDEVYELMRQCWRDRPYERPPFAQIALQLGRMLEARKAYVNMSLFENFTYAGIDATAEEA

[30] = biological target: TRPM6 (Homo sapiens, UniProt Q9BX84); conditions: 0.1 µM; binder
[31] = biological target: ULK2 (Homo sapiens, UniProt Q8IYT8); conditions: 0.1 µM; binder
Sequence of ULK2 (Q8IYT8 whole entry): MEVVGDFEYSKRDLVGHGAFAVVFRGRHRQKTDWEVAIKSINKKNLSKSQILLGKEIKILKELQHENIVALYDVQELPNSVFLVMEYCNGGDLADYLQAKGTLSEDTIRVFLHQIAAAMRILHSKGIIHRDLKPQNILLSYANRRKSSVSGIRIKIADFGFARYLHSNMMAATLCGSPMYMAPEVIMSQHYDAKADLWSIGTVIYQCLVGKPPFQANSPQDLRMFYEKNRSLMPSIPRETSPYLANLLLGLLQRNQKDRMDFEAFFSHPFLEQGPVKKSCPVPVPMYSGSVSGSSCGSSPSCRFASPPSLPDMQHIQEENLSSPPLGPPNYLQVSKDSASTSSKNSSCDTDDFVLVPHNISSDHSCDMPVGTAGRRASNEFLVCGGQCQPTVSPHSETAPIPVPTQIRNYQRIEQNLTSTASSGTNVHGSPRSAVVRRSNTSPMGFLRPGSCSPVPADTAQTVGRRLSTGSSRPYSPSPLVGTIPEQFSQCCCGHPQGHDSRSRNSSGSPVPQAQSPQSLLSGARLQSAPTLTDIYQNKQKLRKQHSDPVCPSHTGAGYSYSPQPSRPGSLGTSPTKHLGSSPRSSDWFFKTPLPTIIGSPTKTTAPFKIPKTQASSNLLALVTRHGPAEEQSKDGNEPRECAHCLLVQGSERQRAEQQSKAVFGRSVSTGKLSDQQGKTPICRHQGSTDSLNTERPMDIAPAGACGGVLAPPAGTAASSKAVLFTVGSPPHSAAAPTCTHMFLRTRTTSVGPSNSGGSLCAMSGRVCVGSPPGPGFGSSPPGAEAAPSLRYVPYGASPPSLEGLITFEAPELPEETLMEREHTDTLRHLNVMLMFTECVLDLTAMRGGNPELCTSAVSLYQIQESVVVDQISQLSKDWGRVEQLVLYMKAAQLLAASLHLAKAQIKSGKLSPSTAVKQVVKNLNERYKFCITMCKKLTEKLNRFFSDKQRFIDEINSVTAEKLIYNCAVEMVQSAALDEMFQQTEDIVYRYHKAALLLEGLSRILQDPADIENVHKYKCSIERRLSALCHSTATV

Sequence of CSNK1G2 (P78368 whole entry): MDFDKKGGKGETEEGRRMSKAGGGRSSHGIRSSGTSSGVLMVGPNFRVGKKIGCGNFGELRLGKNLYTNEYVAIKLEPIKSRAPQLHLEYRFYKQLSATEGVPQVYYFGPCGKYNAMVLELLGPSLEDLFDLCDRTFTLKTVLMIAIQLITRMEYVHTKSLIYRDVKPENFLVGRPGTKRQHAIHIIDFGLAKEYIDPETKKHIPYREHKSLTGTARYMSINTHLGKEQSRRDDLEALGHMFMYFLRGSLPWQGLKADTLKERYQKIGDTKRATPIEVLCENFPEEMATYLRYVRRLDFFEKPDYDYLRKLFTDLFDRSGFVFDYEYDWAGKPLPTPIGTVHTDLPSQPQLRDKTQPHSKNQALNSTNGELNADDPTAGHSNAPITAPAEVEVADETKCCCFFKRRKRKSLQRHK

CNc1ncc2cc(-c3ccc(-c4cccc(C)n4)cc3Cl)c(=O)n(C[C@H]3OC[C@H](N)CO3)c2n1 [compound 6, G-5555]
Percent Control [1]: 100%
Percent Control [2]: 100%
Percent Control [3]: 100%
Percent Control [4]: 100%
Percent Control [5]: 100%
Percent Control [6]: 100%
Percent Control [7]: 80%
Percent Control [8]: 100%
Percent Control [9]: 98%
Percent Control [10]: 100%
Percent Control [11]: 100%
Percent Control [12]: 100%
Percent Control [13]: 86%
Percent Control [14]: 100%
Percent Control [15]: 90%
Percent Control [16]: 100%
Percent Control [17]: 33%
Percent Control [18]: 75%
Percent Control [19]: 77%
Percent Control [20]: 15%
Percent Control [21]: 48%
Percent Control [22]: 100%
Percent Control [23]: 88%
Percent Control [24]: 100%
Percent Control [25]: 75%
Percent Control [26]: 86%
Percent Control [27]: 98%
Percent Control [28]: 100%
Percent Control [29]: 100%
Percent Control [30]: 100%
Percent Control [31]: 100%
